Reference: the NIST ThermoML archive (doi:10.1016/j.jct.2017.02.024)
± gives the expanded uncertainty stated by the source.

Experiment: mn = molality of the nth substance listed, in mol/kg
Details: 100 kPa, Liquid; for viscosity: Capillary tube (Ostwald / Ubbelohde) method; for mass density: Vibrating tube method

C[C@H](N)C(=O)O [(S)-2-aminopropanoic acid] + O
Details	mass density, 293.15 K [kg/m3]	mass density, 303.15 K [kg/m3]	mass density, 313.15 K [kg/m3]	mass density, 323.15 K [kg/m3]	viscosity, 293.15 K [mPa·s]	viscosity, 303.15 K [mPa·s]	viscosity, 313.15 K [mPa·s]	viscosity, 323.15 K [mPa·s]
m1 = 0.1	1001.06 ± 1.4	998.5 ± 1.4	995.04 ± 1.4	990.8 ± 1.4	1.027 ± 0.042	0.817 ± 0.033	0.669 ± 0.027	0.559 ± 0.023
m1 = 0.2	1003.89 ± 1.4	1001.29 ± 1.4	997.81 ± 1.4	993.55 ± 1.4	1.053 ± 0.043	0.837 ± 0.034	0.684 ± 0.028	0.571 ± 0.023
m1 = 0.3	1006.66 ± 1.4	1004.03 ± 1.4	1000.5 ± 1.4	996.24 ± 1.4	1.079 ± 0.044	0.857 ± 0.035	0.7 ± 0.028	0.584 ± 0.024
m1 = 0.4	–	–	–	–	1.106 ± 0.045	0.878 ± 0.036	0.716 ± 0.029	0.597 ± 0.024
m1 = 0.401	1009.41 ± 1.4	1006.73 ± 1.4	1003.18 ± 1.4	998.9 ± 1.4	–	–	–	–
m1 = 0.5	1012.07 ± 1.4	1009.37 ± 1.4	1005.79 ± 1.4	1001.49 ± 1.4	1.134 ± 0.046	0.898 ± 0.036	0.733 ± 0.03	0.611 ± 0.025
m1 = 0.6	1014.71 ± 1.4	1011.97 ± 1.4	1008.36 ± 1.4	1004.08 ± 1.4	1.163 ± 0.047	0.921 ± 0.037	0.751 ± 0.03	0.624 ± 0.025
m1 = 0.7	1017.29 ± 1.4	1014.52 ± 1.4	1010.9 ± 1.4	1006.6 ± 1.4	1.193 ± 0.048	0.943 ± 0.038	0.768 ± 0.031	0.638 ± 0.026

O [water] + CC(C)[C@H](N)C(=O)O
m2 = 0
Details	mass density [kg/m3]	viscosity [mPa·s]
293.15 K	–	1.002 ± 0.041
303.15 K	–	0.798 ± 0.032
313.15 K	–	0.654 ± 0.026
323.15 K	988.02 ± 1.4	0.547 ± 0.022

O [water] + C[C@H](N)C(=O)O
m2 = 0
Details	mass density [kg/m3]	viscosity [mPa·s]
293.15 K	–	1.002 ± 0.041
303.15 K	–	0.798 ± 0.032
313.15 K	–	0.654 ± 0.026
323.15 K	988.02 ± 1.4	0.547 ± 0.022

O [water] + NCC(=O)O
m2 = 0
Details	mass density [kg/m3]	viscosity [mPa·s]
293.15 K	–	1.002 ± 0.041
303.15 K	–	0.798 ± 0.032
313.15 K	–	0.654 ± 0.026
323.15 K	988.02 ± 1.4	0.547 ± 0.022

O [water] + N=C(N)NCCC[C@H](N)C(=O)O
m2 = 0
Details	mass density [kg/m3]	viscosity [mPa·s]
293.15 K	–	1.002 ± 0.041
303.15 K	–	0.798 ± 0.032
313.15 K	–	0.654 ± 0.026
323.15 K	988.02 ± 1.4	0.547 ± 0.022

O [water] + OC[C@@H](O)[C@@H](O[C@H]1O[C@H](CO)[C@@H](O)[C@H](O)[C@H]1O)[C@H](O)[C@@H](O)CO
m2 = 0
Details	mass density [kg/m3]	viscosity [mPa·s]
293.15 K	–	1.002 ± 0.041
303.15 K	–	0.798 ± 0.032
313.15 K	–	0.654 ± 0.027
323.15 K	988.02 ± 1.4	0.547 ± 0.022

O [water] + C[C@@H](O)[C@H](N)C(=O)O
m2 = 0
Details	mass density [kg/m3]	viscosity [mPa·s]
293.15 K	–	1.002 ± 0.041
303.15 K	–	0.798 ± 0.032
313.15 K	–	0.654 ± 0.026
323.15 K	988.02 ± 1.4	0.547 ± 0.022

NCC(=O)O [2-aminoacetic acid] + O
Details	mass density, 293.15 K [kg/m3]	mass density, 303.15 K [kg/m3]	mass density, 313.15 K [kg/m3]	mass density, 323.15 K [kg/m3]	viscosity, 293.15 K [mPa·s]	viscosity, 303.15 K [mPa·s]	viscosity, 313.15 K [mPa·s]	viscosity, 323.15 K [mPa·s]
m1 = 0.1	1001.39 ± 1.4	998.81 ± 1.4	–	991.09 ± 1.4	1.014 ± 0.041	0.809 ± 0.033	0.663 ± 0.027	0.556 ± 0.023
m1 = 0.2	1004.56 ± 1.4	1001.91 ± 1.4	–	994.12 ± 1.4	1.027 ± 0.042	0.82 ± 0.033	0.673 ± 0.027	0.565 ± 0.023
m1 = 0.3	1007.67 ± 1.4	1004.97 ± 1.4	1001.42 ± 1.4	997.11 ± 1.4	1.041 ± 0.042	0.832 ± 0.034	0.683 ± 0.028	0.574 ± 0.023
m1 = 0.4	1010.73 ± 1.4	1007.98 ± 1.4	1004.4 ± 1.4	1000.05 ± 1.4	1.055 ± 0.043	0.844 ± 0.034	0.693 ± 0.028	0.582 ± 0.024
m1 = 0.5	1013.74 ± 1.4	1010.94 ± 1.4	1007.32 ± 1.4	1002.96 ± 1.4	1.07 ± 0.043	0.856 ± 0.035	0.704 ± 0.029	0.591 ± 0.024
m1 = 0.6	1016.72 ± 1.4	1013.87 ± 1.4	1010.23 ± 1.4	1005.85 ± 1.4	1.085 ± 0.044	0.868 ± 0.035	0.714 ± 0.029	0.6 ± 0.024
m1 = 0.7	1019.66 ± 1.4	1016.75 ± 1.4	1013.06 ± 1.4	1008.69 ± 1.4	1.101 ± 0.045	0.881 ± 0.036	0.724 ± 0.029	0.61 ± 0.025

OC[C@@H](O)[C@@H](O[C@H]1O[C@H](CO)[C@@H](O)[C@H](O)[C@H]1O)[C@H](O)[C@@H](O)CO [4-O-α-D-glucopyranosyl-D-glucitol] + O
Details	mass density, m1 = 0.2 [kg/m3]	mass density, m1 = 0.4 [kg/m3]	mass density, m1 = 0.6 [kg/m3]	mass density, m1 = 0.8 [kg/m3]	mass density, m1 = 1 [kg/m3]	viscosity, m1 = 0.2 [mPa·s]	viscosity, m1 = 0.4 [mPa·s]	viscosity, m1 = 0.6 [mPa·s]	viscosity, m1 = 0.8 [mPa·s]	viscosity, m1 = 1 [mPa·s]
293.15 K	1022.97 ± 1.4	1045.59 ± 1.4	1066.2 ± 1.4	1085.31 ± 1.4	1102.86 ± 1.4	1.202 ± 0.049	1.457 ± 0.059	1.761 ± 0.071	2.142 ± 0.087	2.61 ± 0.11
303.15 K	1020.13 ± 1.4	1042.41 ± 1.4	1062.88 ± 1.4	1081.69 ± 1.4	1099.07 ± 1.4	0.95 ± 0.038	1.134 ± 0.046	1.353 ± 0.055	1.626 ± 0.066	1.954 ± 0.079
313.15 K	1016.42 ± 1.4	1038.47 ± 1.4	1058.71 ± 1.4	1077.36 ± 1.4	1094.66 ± 1.4	0.77 ± 0.031	0.909 ± 0.037	1.073 ± 0.043	1.277 ± 0.052	1.511 ± 0.061
323.15 K	1012.07 ± 1.4	1033.97 ± 1.4	1054.01 ± 1.4	1072.55 ± 1.4	1089.71 ± 1.4	0.641 ± 0.026	0.747 ± 0.03	0.874 ± 0.035	1.027 ± 0.042	1.204 ± 0.049

C[C@@H](O)[C@H](N)C(=O)O [L-threonine] + O
Details	mass density, 293.15 K [kg/m3]	mass density, 303.15 K [kg/m3]	mass density, 313.15 K [kg/m3]	mass density, 323.15 K [kg/m3]	viscosity, 293.15 K [mPa·s]	viscosity, 303.15 K [mPa·s]	viscosity, 313.15 K [mPa·s]	viscosity, 323.15 K [mPa·s]
m1 = 0.1	1002.4 ± 1.4	999.82 ± 1.4	996.36 ± 1.4	992.09 ± 1.4	1.035 ± 0.042	0.823 ± 0.033	0.673 ± 0.027	0.563 ± 0.023
m1 = 0.2	1006.54 ± 1.4	1003.91 ± 1.4	1000.4 ± 1.4	996.09 ± 1.4	1.07 ± 0.043	0.85 ± 0.034	0.694 ± 0.028	0.579 ± 0.023
m1 = 0.3	1010.59 ± 1.4	1007.91 ± 1.4	1004.35 ± 1.4	1000.01 ± 1.4	1.105 ± 0.045	0.878 ± 0.036	0.717 ± 0.029	0.596 ± 0.024
m1 = 0.4	1014.57 ± 1.4	1011.83 ± 1.4	1008.22 ± 1.4	1003.85 ± 1.4	1.143 ± 0.046	0.907 ± 0.037	0.739 ± 0.03	0.615 ± 0.025
m1 = 0.5	1018.46 ± 1.4	1015.67 ± 1.4	1012.03 ± 1.4	1007.62 ± 1.4	1.182 ± 0.048	0.936 ± 0.038	0.763 ± 0.031	0.632 ± 0.026
m1 = 0.6	1022.28 ± 1.4	1019.43 ± 1.4	1015.75 ± 1.4	1011.32 ± 1.4	1.221 ± 0.049	0.967 ± 0.039	0.787 ± 0.032	0.651 ± 0.026
m1 = 0.7	1026.03 ± 1.4	1023.14 ± 1.4	1019.41 ± 1.4	1014.96 ± 1.4	1.263 ± 0.051	0.999 ± 0.04	0.811 ± 0.033	0.67 ± 0.027

N=C(N)NCCC[C@H](N)C(=O)O [L-arginine] + O
Details	mass density, 293.15 K [kg/m3]	mass density, 303.15 K [kg/m3]	mass density, 313.15 K [kg/m3]	mass density, 323.15 K [kg/m3]	viscosity, 293.15 K [mPa·s]	viscosity, 303.15 K [mPa·s]	viscosity, 313.15 K [mPa·s]	viscosity, 323.15 K [mPa·s]
m1 = 0.1	1003.16 ± 1.4	1000.56 ± 1.4	997.08 ± 1.4	992.8 ± 1.4	1.054 ± 0.043	0.837 ± 0.034	0.684 ± 0.028	0.572 ± 0.023
m1 = 0.2	1007.98 ± 1.4	1005.3 ± 1.4	1001.76 ± 1.4	997.43 ± 1.4	1.109 ± 0.045	0.879 ± 0.036	0.716 ± 0.029	0.598 ± 0.024
m1 = 0.3	1012.67 ± 1.4	1009.89 ± 1.4	1006.3 ± 1.4	1001.92 ± 1.4	1.167 ± 0.047	0.922 ± 0.037	0.751 ± 0.03	0.625 ± 0.025
m1 = 0.4	1017.19 ± 1.4	1014.33 ± 1.4	1010.71 ± 1.4	1006.3 ± 1.4	1.229 ± 0.05	0.969 ± 0.039	0.786 ± 0.032	0.653 ± 0.026
m1 = 0.5	1021.57 ± 1.4	1018.66 ± 1.4	1014.97 ± 1.4	1010.54 ± 1.4	1.296 ± 0.052	1.019 ± 0.041	0.825 ± 0.033	0.682 ± 0.028
m1 = 0.6	1025.85 ± 1.4	1022.85 ± 1.4	1019.13 ± 1.4	1014.68 ± 1.4	1.366 ± 0.055	1.069 ± 0.043	0.863 ± 0.035	0.713 ± 0.029
m1 = 0.7	1030 ± 1.4	1026.94 ± 1.4	1023.18 ± 1.4	1018.67 ± 1.4	1.435 ± 0.058	1.121 ± 0.045	0.903 ± 0.037	0.743 ± 0.03

CC(C)[C@H](N)C(=O)O [L-valine] + O
Details	mass density, 293.15 K [kg/m3]	mass density, 303.15 K [kg/m3]	mass density, 313.15 K [kg/m3]	mass density, 323.15 K [kg/m3]	viscosity, 293.15 K [mPa·s]	viscosity, 303.15 K [mPa·s]	viscosity, 313.15 K [mPa·s]	viscosity, 323.15 K [mPa·s]
m1 = 0.1	1000.87 ± 1.4	998.32 ± 1.4	994.85 ± 1.4	990.59 ± 1.4	1.044 ± 0.042	0.83 ± 0.034	0.678 ± 0.027	0.567 ± 0.023
m1 = 0.2	1003.5 ± 1.4	1000.9 ± 1.4	997.4 ± 1.4	993.09 ± 1.4	1.088 ± 0.044	0.864 ± 0.035	0.704 ± 0.029	0.587 ± 0.024
m1 = 0.3	1006.05 ± 1.4	1003.43 ± 1.4	999.89 ± 1.4	995.54 ± 1.4	1.134 ± 0.046	0.899 ± 0.036	0.731 ± 0.03	0.608 ± 0.025
m1 = 0.4	1008.55 ± 1.4	1005.9 ± 1.4	1002.34 ± 1.4	997.95 ± 1.4	1.183 ± 0.048	0.936 ± 0.038	0.76 ± 0.031	0.63 ± 0.026
